In patent US20170119776A1, “CHIRAL 2,5-DISUBSTITUTED CYCLOPENTANECARBOXYLIC ACID DERIVATIVES AND USE THEREOF” (BAYER PHARMA AKTIENGESELLSCHAFT, priority 2014, published 2017):

molecular target: T1, human macrophage elastase (HME/hMMP-12) (Homo sapiens, UniProt P39900); experiment: In vitro HME inhibition test (standard / high-sensitivity), without BSA; assay type: biochemical; conditions: absence of serum albumin (BSA)
T1 construct: 0.5 nM HME; purchased R&D Systems 917-MP
From the text: The activity of the compounds according to the invention towards HME (MMP-12) is ascertained in an in vitro inhibition test. The HME-mediated amidolytic cleavage of a suitable peptide substrate leads herein to a fluorescent light increase. The signal intensity of the fluorescent light is directly proportional to the enzyme activity. The active concentration of a test compound at which half of the enzyme is inhibited (50% signal intensity of the fluorescent light) is given as IC50 value.
In a 384 hole microtiter plate, in a test volume of in total 41 μl of the test buffer (0.1 M HEPES pH 7.4, 0.15 M NaCl, 0.03 M CaCl2, 0.004 mM ZnCl2, […], 0.005% Brij®), the enzyme (0.5 nM HME; R&D Systems, 917-MP, autocatalytic activation according to the manufacturer's instructions) and the intramolecularly quenched substrate [5 μM Mca-Pro-Leu-Gly-Leu-Glu-Glu-Ala-Dap(Dnp)-NH2; Bachem, M-2670] are incubated in the absence and presence of the test substance (as solution in DMSO) for two hours at 37° C. The fluorescent light intensity of the test batches is measured (excitation 323 nm, emission 393 nm). The IC50 values are ascertained by plotting the fluorescent light intensity against the active ingredient concentration.
If subnanomolar IC values are produced for high potent test substances in the standard HME inhibition test described above, then a modified test is used for their more precise determination. Here, a ten-fold lower enzyme concentration is used (final concentration e.g. 0.05 nM), in order to achieve an increased sensitivity of the test. The incubation time of the test is accordingly chosen to be longer (e.g. 16 hours).
Table 1 below gives the IC50 values from these HME inhibition tests for the working examples of the present invention and also for two structurally related comparison compounds from the prior art (as racemate or separated enantiomers)→(sometimes as average values from several independent individual determinations and rounded to two significant places). The IC50 values were determined for racemates and enantiomers from differently generated DMSO stock solutions. Whereas an automatically created DMSO stock solution from the internal substance logistics was used for racemates by means of a standard method, for enantiomers and for a more precise direct comparison of the enantiomers with one another, in each case a freshly produced, manually prepared DMSO stock solution was used.

T1 sequence (P39900 106-470): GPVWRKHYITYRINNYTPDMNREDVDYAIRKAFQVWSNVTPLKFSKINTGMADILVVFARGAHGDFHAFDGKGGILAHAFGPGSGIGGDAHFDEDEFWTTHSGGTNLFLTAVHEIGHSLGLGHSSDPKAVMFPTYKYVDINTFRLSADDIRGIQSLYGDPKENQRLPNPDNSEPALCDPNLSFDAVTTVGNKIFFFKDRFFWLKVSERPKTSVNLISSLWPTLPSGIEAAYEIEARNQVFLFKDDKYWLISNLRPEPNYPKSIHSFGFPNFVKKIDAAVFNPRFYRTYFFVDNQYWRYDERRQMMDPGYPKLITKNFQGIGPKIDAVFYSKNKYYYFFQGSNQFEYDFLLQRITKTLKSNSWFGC

IC50 [µM] | Structure (SMILES)
0.16 | CCCCCOc1ccc(C(=O)CC(CCn2nnc3ccccc3c2=O)C(=O)O)cc1 (single isomer, unassigned; enantiomer 2) [Comparative Example B-3, (−)-4-Oxo-2-[2-(4-oxo-1,2,3-benzotriazin-3(4H)-yl)ethyl]-4-[4-(pentyloxy)phenyl]butanoic acid (enantiomer 2)]
0.066 | O=C(O)[C@@H]1[C@@H](Cn2nnc3ccccc3c2=O)CC[C@H]1C(=O)c1ccc(-c2ccc(Cl)cc2)cc1 (single isomer, unassigned; enantiomer 1) [Comparative Example A-2, (1RS,2RS,5SR)-2-[(4′-chlorobiphenyl-4-yl)carbonyl]-5-[(4-oxo-1,2,3-benzotriazin-3(4H)-yl)methyl]cyclopentanecarboxylic acid (enantiomer 1)]
0.014 | O=C(O)[C@@H]1[C@@H](Cn2nnc3ccccc3c2=O)CC[C@H]1C(=O)c1ccc(OCc2ccccc2)cc1 [Example 3, (−)-(1R,2R,5S)-2-[4-(Benzyloxy)benzoyl]-5-[(4-oxo-1,2,3-benzotriazin-3(4H)-yl)methyl]cyclopentanecarboxylic acid]
